Assay results reported in patent US11717508B2, “Compounds, compositions, and methods for inhibiting bacterial growth” (priority 2016, dated 2023).

Tested on: DosRST regulon
Type: cell-based
[1] = Rv0569, WT Mtb treated with HC102A compared to DMSO
[2] = Rv0570 nrdZ, WT Mtb treated with HC102A compared to DMSO
[3] = Rv0571c, WT Mtb treated with HC102A compared to DMSO
[4] = Rv0572c, WT Mtb treated with HC102A compared to DMSO
[5] = Rv0573c, WT Mtb treated with HC102A compared to DMSO
[6] = Rv0574c, WT Mtb treated with HC102A compared to DMSO
[7] = Rv1733c, WT Mtb treated with HC102A compared to DMSO
[8] = Rv1735c, WT Mtb treated with HC102A compared to DMSO
[9] = Rv1736c narX, WT Mtb treated with HC102A compared to DMSO
[10] = Rv1737c narK2, WT Mtb treated with HC102A compared to DMSO
[11] = Rv1738, WT Mtb treated with HC102A compared to DMSO
[12] = Rv1790 PPE, WT Mtb treated with HC102A compared to DMSO
[13] = Rv1812c, WT Mtb treated with HC102A compared to DMSO
[14] = Rv1813c, WT Mtb treated with HC102A compared to DMSO

SMILES: C[C@@H]1CC(C)(C)C[C@]2(C1)NC(=O)NC2=O (racemic) [HC102A, 7,7,9-trimethyl-1,3-diazaspiro[4.5]decane-2,4-dione]
- genes downregulated by compound (total) (40 μM, 6 days, >2-fold, p<0.05): 55 genes
- downregulation of tgs1 gene (transcriptional profiling) (CDC1551, 40 μM, 6 days): ~20 fold
- Fold change, gene MT0595 [1]: 0.1089
- log2 Fold change, gene MT0595 [1]: −3.199
- Counts per million (CPM) WT_HC102A1, gene MT0595 (Rv0569, WT Mtb treated with HC102A, replicate 1): 21.38 CPM
- Counts per million (CPM) WT_HC102A2, gene MT0595 (Rv0569, WT Mtb treated with HC102A, replicate 2): 25.92 CPM
- Fold change, gene MT0596 [2]: 0.04533
- log2 Fold change, gene MT0596 [2]: −4.464
- Counts per million (CPM) WT_HC102A1, gene MT0596 (Rv0570 nrdZ, WT Mtb treated with HC102A, replicate 1): 102.7 CPM
- Counts per million (CPM) WT_HC102A2, gene MT0596 (Rv0570 nrdZ, WT Mtb treated with HC102A, replicate 2): 94.1 CPM
- Fold change, gene MT0597 [3]: 0.2805
- log2 Fold change, gene MT0597 [3]: −1.834
- Counts per million (CPM) WT_HC102A1, gene MT0597 (Rv0571c, WT Mtb treated with HC102A, replicate 1): 94.1998 CPM
- Counts per million (CPM) WT_HC102A2, gene MT0597 (Rv0571c, WT Mtb treated with HC102A, replicate 2): 81.32 CPM
- Fold change, gene MT0599 [4]: 0.2441
- log2 Fold change, gene MT0599 [4]: −2.034
- Counts per million (CPM) WT_HC102A1, gene MT0599 (Rv0572c, WT Mtb treated with HC102A, replicate 1): 127.4 CPM
- Counts per million (CPM) WT_HC102A2, gene MT0599 (Rv0572c, WT Mtb treated with HC102A, replicate 2): 180.6 CPM
- Fold change, gene MT0601 [5]: 0.1932
- log2 Fold change, gene MT0601 [5]: −2.372
- Counts per million (CPM) WT_HC102A1, gene MT0601 (Rv0573c, WT Mtb treated with HC102A, replicate 1): 13.82 CPM
- Counts per million (CPM) WT_HC102A2, gene MT0601 (Rv0573c, WT Mtb treated with HC102A, replicate 2): 19.29 CPM
- Fold change, gene MT0602 [6]: 0.1416
- log2 Fold change, gene MT0602 [6]: −2.82
- Counts per million (CPM) WT_HC102A1, gene MT0602 (Rv0574c, WT Mtb treated with HC102A, replicate 1): 45.11 CPM
- Counts per million (CPM) WT_HC102A2, gene MT0602 (Rv0574c, WT Mtb treated with HC102A, replicate 2): 51.54 CPM
- Fold change, gene MT1774 [7]: 0.07551
- log2 Fold change, gene MT1774 [7]: −3.727
- Counts per million (CPM) WT_HC102A1, gene MT1774 (Rv1733c, WT Mtb treated with HC102A, replicate 1): 109.6 CPM
- Counts per million (CPM) WT_HC102A2, gene MT1774 (Rv1733c, WT Mtb treated with HC102A, replicate 2): 116 CPM
- Fold change, gene MT1776 [8]: 0.2742
- log2 Fold change, gene MT1776 [8]: −1.867
- Counts per million (CPM) WT_HC102A1, gene MT1776 (Rv1735c, WT Mtb treated with HC102A, replicate 1): 5.202 CPM
- Counts per million (CPM) WT_HC102A2, gene MT1776 (Rv1735c, WT Mtb treated with HC102A, replicate 2): 4.163 CPM
- Fold change, gene MT1778 [9]: 0.05545
- log2 Fold change, gene MT1778 [9]: −4.173
- Counts per million (CPM) WT_HC102A1, gene MT1778 (Rv1736c narX, WT Mtb treated with HC102A, replicate 1): 234.5 CPM
- Counts per million (CPM) WT_HC102A2, gene MT1778 (Rv1736c narX, WT Mtb treated with HC102A, replicate 2): 246.1 CPM
- Fold change, gene MT1779 [10]: 0.04997
- log2 Fold change, gene MT1779 [10]: −4.323
- Counts per million (CPM) WT_HC102A1, gene MT1779 (Rv1737c narK2, WT Mtb treated with HC102A, replicate 1): 72.42 CPM
- Counts per million (CPM) WT_HC102A2, gene MT1779 (Rv1737c narK2, WT Mtb treated with HC102A, replicate 2): 91.94 CPM
- Fold change, gene MT1780 [11]: 0.1174
- log2 Fold change, gene MT1780 [11]: −3.091
- Counts per million (CPM) WT_HC102A1, gene MT1780 (Rv1738, WT Mtb treated with HC102A, replicate 1): 337.8 CPM
- Counts per million (CPM) WT_HC102A2, gene MT1780 (Rv1738, WT Mtb treated with HC102A, replicate 2): 628.9 CPM
- Fold change, gene MT1839 [12]: 0.466
- log2 Fold change, gene MT1839 [12]: −1.102
- Counts per million (CPM) WT_HC102A1, gene MT1839 (Rv1790 PPE, WT Mtb treated with HC102A, replicate 1): 29.83 CPM
- Counts per million (CPM) WT_HC102A2, gene MT1839 (Rv1790 PPE, WT Mtb treated with HC102A, replicate 2): 18.94 CPM
- Fold change, gene MT1860 [13]: 0.3171
- log2 Fold change, gene MT1860 [13]: −1.657
- Counts per million (CPM) WT_HC102A1, gene MT1860 (Rv1812c, WT Mtb treated with HC102A, replicate 1): 54.94 CPM
- Counts per million (CPM) WT_HC102A2, gene MT1860 (Rv1812c, WT Mtb treated with HC102A, replicate 2): 65.84 CPM
- Fold change, gene MT1861 [14]: 0.06232
- log2 Fold change, gene MT1861 [14]: −4.004
- Counts per million (CPM) WT_HC102A1, gene MT1861 (Rv1813c, WT Mtb treated with HC102A, replicate 1): 121.3 CPM
